Data on ten compounds can be found in US8986994B2, “Substituted pyridines and pyrimidines” (Technische Universitaet Wien, priority 2009, dated 2015).

Where two headings read alike, the source gives them in different places. Bounds are passed on as bounds.

One series has as its system ANF (P19 cells). Briefly: ANF promoter luciferase reporter assay in P19 cells. The following applies: for fold induction at 1 µM: Mus musculus, read-out: ANF activity; for luciferase signal in all three reporter assays: ANF, TOPflash and Nkx2.5 reporter assays together. It counts as cell-based, mouse.
In a further series the test system is ANF (C2C12 cells). Briefly: ANF promoter luciferase reporter assay in C2C12 cells. It counts as cell-based, mouse. The following applies: for luciferase signal in all three reporter assays: ANF, TOPflash and Nkx2.5 reporter assays together; for fold induction at 1 µM: Mus musculus, read-out: ANF activity.
In the next series the test system is Nkx2.5 (P19 cells). Briefly: Nkx2.5 luciferase reporter assay in P19 cells. It counts as cell-based. Conditions: Mus musculus, read-out: Nkx2.5 activity.
Series [1] relates to ANF (human primary skeletal myoblasts). The series can be described thus: ANF reporter assay in human primary skeletal myoblasts. Format: cell-based. Conditions: 1 μM for 6 days, two experiments.
A further series concerns TOPflash (C2C12 cells). Briefly: TOPflash luciferase reporter assay in C2C12 cells. It counts as cell-based. Conditions: Mus musculus, read-out: TOPflash activity.
A further series has as its system TOPflash (P19 cells). Briefly: TOPflash luciferase reporter assay in P19 cells. It counts as cell-based. Conditions: Mus musculus, read-out: TOPflash activity.
The test system of the next series is Nkx2.5 (C2C12 cells). The series can be described thus: Nkx2.5 luciferase reporter assay in C2C12 cells. Format: cell-based. Conditions: Mus musculus, read-out: Nkx2.5 activity.
Series [2] deals with Ca currents in C2C12 cells. Briefly: Electrophysiological testing, whole cell patch clamp: Ca currents. Format: cell-based, mouse.
The test system of series [3] is Na currents in C2C12 cells. Format: cell-based, mouse. The following applies: 1 μM for 8 days.
Where [4] appears, read: 192 h, P19 cells, 1 μM for 8 days, luciferase signal vs control (untreated cells).
The mark [5] stands for this setting: 192 h, C2C12 cells, 1 μM for 8 days, luciferase signal vs control (untreated cells).

For the compound `COc1ccc(Nc2cccc(NCCO)n2)cc1` [example 42, 2-(6-(4-Methoxyphenylamino)pyridin-2-ylamino)ethan-1-ol], the fold induction at 1 µM was 1.3 to 2 with ANF (P19 cells) (setting [4]); 1.3 to 2 in the series on ANF (C2C12 cells) (setting [5]); 1.3 to 2 in the series with Nkx2.5 (P19 cells) (setting [4]); 1.3 to 2 in the series on TOPflash (C2C12 cells) (setting [5]); more than 2 with TOPflash (P19 cells) (setting [4]); 1.3 to 2 in the series on Nkx2.5 (C2C12 cells) (setting [5]). For the same compound, the “luciferase signal in all three reporter assays” value with ANF (P19 cells) (P19 cells, 1 μM for 8 days) is “increase in the luciferase signal in all three reporter assays”; in the series on ANF (C2C12 cells) (C2C12 cells, 1 μM for 8 days), “increase in the luciferase signal in all three reporter assays”. In addition, the “luciferase signal in the ANF reporter assay” value in series [1] was “generated an increase in the luciferase signal”.

Consider `c1nc(Nc2ccc(N3CCOCC3)cc2)cc(NC2CCCCC2)n1` [example 5, N^4-Cyclohexyl-N^6-(4-morpholinophenyl)pyrimidine-4,6-diamine], for which the melting point lay within 239 to 240 °C. Moreover, in the series on ANF (P19 cells) (P19, 192 h), the fold induction at 1 µM was 1.3 to 2. Moreover, the fold induction at 1 µM in the series on ANF (C2C12 cells) (C2C12, 192 h) was less than 1.3. Besides, the fold induction at 1 µM in the series with Nkx2.5 (P19 cells) (P19, 192 h) was less than 1.3. Besides, the fold induction at 1 µM with TOPflash (C2C12 cells) (C2C12, 192 h) was less than 1.3. Besides, the fold induction at 1 µM with TOPflash (P19 cells) (P19, 192 h) was less than 1.3. In addition, the fold induction at 1 µM in the series with Nkx2.5 (C2C12 cells) (C2C12, 192 h) was less than 1.3.

The compound `OCCCNc1cc(Nc2ccc(N3CCOCC3)cc2)ncn1` [example 6, 3-(6-(4-Morpholinophenylamino)pyrimidin-4-ylamino)propan-1-ol] yielded a melting point of 198 to 199 °C. In addition, in the series with ANF (P19 cells) (setting [4]), the fold induction at 1 µM was in the range of 1.3 to 2. For the same compound, the fold induction at 1 µM in the series on ANF (C2C12 cells) (setting [5]) was in the range of 1.3 to 2. The fold induction at 1 µM with Nkx2.5 (P19 cells) (setting [4]) was less than 1.3. In addition, in the series on TOPflash (C2C12 cells) (setting [5]), the fold induction at 1 µM was less than 1.3. Also, the fold induction at 1 µM in the series with TOPflash (P19 cells) (setting [4]) was less than 1.3. The fold induction at 1 µM in the series on Nkx2.5 (C2C12 cells) (setting [5]) lay within 1.3 to 2.

Compound `COc1ccc(Nc2ccnc(NCCO)c2)cc1` [example 40, 2-(4-(4-Methoxyphenylamino)pyridin-2-ylamino)ethan-1-ol] showed a melting point of 164 to 165 °C. Also, in the series with ANF (P19 cells) (setting [4]), the fold induction at 1 µM was less than 1.3. Moreover, the fold induction at 1 µM in the series on ANF (C2C12 cells) (setting [5]) was less than 1.3. For the same compound, the fold induction at 1 µM in the series with Nkx2.5 (P19 cells) (setting [4]) is less than 1.3. For the same compound, in the series with TOPflash (C2C12 cells) (setting [5]), the fold induction at 1 µM was less than 1.3. Moreover, the fold induction at 1 µM with TOPflash (P19 cells) (setting [4]) was less than 1.3. The fold induction at 1 µM in the series on Nkx2.5 (C2C12 cells) (setting [5]) was less than 1.3.

For the compound `COc1ccc(Nc2cc(NCCO)ncn2)cc1` [example 1, 2-(6-(4-Methoxyphenylamino)pyrimidine-4-ylamino)ethan-1-ol], the fold induction at 1 µM with ANF (P19 cells) (setting [4]) is 1.3 to 2; with ANF (C2C12 cells) (setting [5]) it was more than 2; in the series with Nkx2.5 (P19 cells) (setting [4]), less than 1.3; in the series on TOPflash (C2C12 cells) (setting [5]), less than 1.3; in the series with TOPflash (P19 cells) (setting [4]) it was less than 1.3; with Nkx2.5 (C2C12 cells) (setting [5]), less than 1.3. In series [2], the “activation kinetics of Ca currents” value was “significantly speeds”. For the same compound, the “tetrodotoxin (TTX)-resistance of the Na currents” value in series [3] is “moderately increase”.

`OCCNc1cc(Nc2ccc(Oc3ccccc3)cc2)ncn1` [example 8, 2-(6-(4-Phenoxyphenylamino)pyrimidin-4-ylamino)ethan-1-ol] registered a melting point of 154 to 156 °C. In the series on ANF (P19 cells) (setting [4]), the fold induction at 1 µM was less than 1.3. In the series with ANF (C2C12 cells) (setting [5]), the fold induction at 1 µM was less than 1.3. In addition, the fold induction at 1 µM with Nkx2.5 (P19 cells) (setting [4]) was less than 1.3. For the same compound, the fold induction at 1 µM in the series on TOPflash (C2C12 cells) (setting [5]) was less than 1.3. In addition, the fold induction at 1 µM in the series on TOPflash (P19 cells) (setting [4]) fell in the range of 1.3 to 2. The fold induction at 1 µM with Nkx2.5 (C2C12 cells) (setting [5]) lay within 1.3 to 2.

In turn, `CCCNc1cc(Nc2ccc(OC)cc2)ncn1` [example 9, N^4-(4-Methoxyphenyl)-N^6-propylpyrimidine-4,6-diamine] yielded a melting point of 194 to 196 °C. In the series on ANF (P19 cells) (setting [4]), the fold induction at 1 µM was less than 1.3. Besides, the fold induction at 1 µM in the series with ANF (C2C12 cells) (setting [5]) was less than 1.3. In addition, in the series with Nkx2.5 (P19 cells) (setting [4]), the fold induction at 1 µM is more than 2. Moreover, the fold induction at 1 µM with TOPflash (C2C12 cells) (setting [5]) is 1.3 to 2. Besides, the fold induction at 1 µM with TOPflash (P19 cells) (setting [4]) was less than 1.3. In addition, the fold induction at 1 µM with Nkx2.5 (C2C12 cells) (setting [5]) is 1.3 to 2.

Compound `COc1ccc(Nc2cc(NC3CCCCC3)ncn2)cc1` [example 3, N^4-Cyclohexyl-N^6-(4-methoxyphenyl)pyrimidine-4,6-diamine] had a melting point of 218 to 219 °C. Also, in the series with ANF (P19 cells) (P19, 192 h), the fold induction at 1 µM is more than 2. The “luciferase signal in all three reporter assays” value in the series with ANF (P19 cells) (P19 cells, 1 μM for 8 days) was “increase in the luciferase signal in all three reporter assays”. Further, in the series on ANF (C2C12 cells) (C2C12 cells, 1 μM for 8 days), the “luciferase signal in all three reporter assays” value is “increase in the luciferase signal in all three reporter assays”. Moreover, in the series with ANF (C2C12 cells) (C2C12, 192 h), the fold induction at 1 µM is more than 2. For the same compound, the fold induction at 1 µM with Nkx2.5 (P19 cells) (P19, 192 h) was more than 2. Also, the fold induction at 1 µM in the series with TOPflash (C2C12 cells) (C2C12, 192 h) was 1.3 to 2. The fold induction at 1 µM in the series with TOPflash (P19 cells) (P19, 192 h) is more than 2. The fold induction at 1 µM in the series with Nkx2.5 (C2C12 cells) (C2C12, 192 h) is more than 2.

The compound `COc1ccc(Nc2cc(NCCCO)ncn2)cc1` [example 2, 3-(6-(4-Methoxyphenylamino)pyrimidine-4-ylamino)propan-1-ol] returned a melting point of 151 to 152 °C. Also, the fold induction at 1 µM in the series with ANF (P19 cells) (setting [4]) fell in the range of 1.3 to 2. Moreover, the fold induction at 1 µM in the series on ANF (C2C12 cells) (setting [5]) is less than 1.3. Moreover, the fold induction at 1 µM with Nkx2.5 (P19 cells) (setting [4]) was less than 1.3. For the same compound, the fold induction at 1 µM in the series on TOPflash (C2C12 cells) (setting [5]) is less than 1.3. In the series with TOPflash (P19 cells) (setting [4]), the fold induction at 1 µM was more than 2. The fold induction at 1 µM in the series with Nkx2.5 (C2C12 cells) (setting [5]) was in the range of 1.3 to 2. Besides, the “tetrodotoxin (TTX)-resistance of the Na currents” value in series [3] is listed as “moderately increase”.

`OCCNc1cc(Nc2ccc(N3CCOCC3)cc2)ncn1` [example 4, 2-(6-(4-Morpholinophenylamino)pyrimidin-4-ylamino)ethan-1-ol] yielded a melting point of 204 to 207 °C. Further, the fold induction at 1 µM in the series on ANF (P19 cells) (setting [4]) is less than 1.3. Besides, the fold induction at 1 µM with ANF (C2C12 cells) (setting [5]) is less than 1.3. The fold induction at 1 µM in the series with Nkx2.5 (P19 cells) (setting [4]) is less than 1.3. The fold induction at 1 µM in the series with TOPflash (C2C12 cells) (setting [5]) is less than 1.3. Further, in the series on TOPflash (P19 cells) (setting [4]), the fold induction at 1 µM was 1.3 to 2. Besides, the fold induction at 1 µM with Nkx2.5 (C2C12 cells) (setting [5]) is less than 1.3.
